Reference: publication PMC11855827, “High-Throughput Screening of Five Compound Libraries for Anthelmintic Activity and Toxicity Leads to the Discovery of Two Flavonoid Compounds” (International Journal of Molecular Sciences, 2025)
Several values for one entry are separate records, joined by “and”; a condition that tells them apart may be missing. Equal values may be shown once. Where a name gives a salt, the structure may show the parent alone. Read-outs that look alike come from different tables or passages of the source.

System: C. elegans
[1] = Table S2, C. elegans SS assay, 110 μM, 24 h, averages of 4 data points
[2] = Table S2, C. elegans SS assay, 110 μM, 0 h, averages of 4 data points

Row | Compound | Percentage of motility inhibition 24 h [1] | Percentage of motility inhibition 0 h [2] | Percentage of motility inhibition 0 h (110 µM) [%] | Percentage of motility inhibition 24 h (110 µM) [%]
1 | COC[C@]12CN(C)C3[C@@H]4[C@H](OC)[C@H]1[C@@]3([C@@H](OC)C[C@H]2O)[C@]1(O)C[C@@]2(O)[C@H](OC(=O)c3ccccc3)[C@@H]1[C@]4(OC(C)=O)[C@@H](O)[C@@H]2OC [Beiwutine] | 13% and 10% | – | – | –
2 | CCN1C[C@]2(COC)[C@H](O)C[C@H](OC)[C@@]34[C@@H]5C[C@@]6(O)[C@H](OC(=O)c7ccccc7)[C@@H]5[C@@](O)([C@@H]([C@H](OC)[C@H]23)[C@@H]14)[C@@H](O)[C@@H]6OC [Benzoylaconine] | 0% | 2% | – | –
3 | COC[C@@]12CC[C@H](OC)[C@]34C([C@H]([C@H](OC)[C@H]13)[C@]1(O)[C@H]3[C@@H](OC(=O)c5ccccc5)[C@](O)(C[C@H]34)[C@@H](OC)[C@@H]1O)N(C)C2 [Benzoylhypaconine] | 0% | 5% | – | –
4 | COC[C@]12CN(C)C3[C@@H]4[C@H](OC)[C@H]1[C@@]3([C@@H](OC)C[C@H]2O)[C@@H]1C[C@@]2(O)[C@H](OC(=O)c3ccccc3)[C@@H]1[C@]4(O)[C@@H](O)[C@@H]2OC [Benzoylmesaconine] | 0% | 1% | – | –
5 | C[N+](C)(CCOc1ccccc1)Cc1ccccc1.O=C([O-])c1cc2ccccc2cc1O [Bephenium (hydroxynaphthoate)] | 5% | 12% | – | –
6 | COc1cc2c3cc1Oc1c(OC)c(OC)cc4c1[C@@H](Cc1ccc(O)c(c1)Oc1ccc(cc1)C[C@@H]3N(C)CC2)N(C)CC4 [Berbamine (dihydrochloride)] | 11% and 15% | 33% and 53% | – | –
7 | COc1ccc2cc3[n+](cc2c1O)CCc1cc2c(cc1-3)OCO2.[Cl-] [Berberrubine (chloride)] | 0% | 0% | – | –
8 | Cl.N[C@@H]1CCCCN(c2c(F)cc3c(=O)c(C(=O)O)cn(C4CC4)c3c2Cl)C1 [Besifloxacin (Hydrochloride)] | 32% | 6% | – | –
9 | C=C(C)[C@@H]1CC[C@]2(C=O)CC[C@]3(C)[C@H](CC[C@@H]4[C@@]5(C)CC[C@H](O)C(C)(C)[C@@H]5CC[C@]43C)[C@@H]12 [Betulinaldehyde] | 3% and 9% | 7% and 0% | – | –
10 | C=C(C)[C@@H]1CC[C@]2(C(=O)O)CC[C@]3(C)[C@H](CC[C@@H]4[C@@]5(C)CCC(=O)C(C)(C)[C@@H]5CC[C@]43C)[C@@H]12 [Betulonic acid] | 26% | 24% | – | –
11 | C=CC1=C(C)/C(=C/C2=NC(=C\c3[nH]c(/C=C4\NC(=O)C(C)=C4C=C)c(C)c3CCC(=O)O)/C(CCC(=O)O)=C2C)NC1=O [Biliverdin (hydrochloride)] | 1% | 0% | – | –
12 | COc1ccc(-c2coc3cc(O)cc(O)c3c2=O)cc1 [Biochanin A] | 0% | 7% | – | –
13 | CC(=O)OC[C@@]12CC[C@@H](C)[C@](C)(CCC3=CC(=O)OC3)[C@H]1C[C@H](O)C=C2CO [Blinin] | 7% | 0% | – | –
14 | COc1cc(O)c2c(c1)O[C@H](c1cc(O)cc(O)c1)CC2=O [Blumeatin] | 11% | 21% | – | –
15 | C=C1C(=O)O[C@H]2C[C@@H](C)[C@@H]3[C@@H](OC(C)=O)C[C@H](O)[C@@]3(C)[C@@H](OC(C)=O)[C@H]12 [Britannin] | 5% | 14% | – | –
16 | CC1=CC(=O)[C@@H](O)[C@]2(C)[C@H]3[C@@H](O)[C@H](O)[C@@]4(C)OC[C@@]35[C@@H](C[C@@H]12)OC(=O)[C@H](O)[C@]54O [Bruceine D] | 54% | 25% | – | –
17 | C[C@H]1O[C@@H](O[C@H]2CC[C@@]3(C)[C@@H](CC[C@]4(C)[C@@H]3C=CC3=C5CC(C)(C)CC[C@]5(CO)[C@@H](O)C[C@]34C)[C@]2(C)CO)[C@H](O[C@@H]2O[C@H](CO)[C@@H](O)[C@H](O)[C@H]2O)[C@@H](O[C@@H]2O[C@H](CO)[C@@H](O)[C@H](O)[C@H]2O)[C@H]1O [Buddlejasaponin IVb] | 4% | 0% | – | –
18 | C=C1C2CCC3(C4C[C@H]5C6(CCC[C@@]5(C)CN(CC)C46)[C@H]3[C@H]2O)[C@@H]1O [Bullatine A] | 3% | 0% | – | –
19 | CN(Cc1ccc(C(C)(C)C)cc1)Cc1cccc2ccccc12.Cl [Butenafine (Hydrochloride)] | 0% | 43% | – | –
20 | Clc1ccc(CCC(Cn2ccnc2)Sc2c(Cl)cccc2Cl)cc1.O=[N+]([O-])O (stereo not shown) [Butoconazole (nitrate)] | 46% | 45% | – | –

Row | Compound | Percentage of motility inhibition 24 h [1] | Percentage of motility inhibition 0 h [2] | Percentage of motility inhibition 0 h (110 µM) [%] | Percentage of motility inhibition 24 h (110 µM) [%]
21 | CCCCC1OC(=O)c2ccccc21 (stereo not shown) [Butylphthalide] | 18% | 0% | – | –
22 | Cc1ccc(Nc2cc(-c3cccc(N4C(=O)c5ccccc5C4=O)c3)ncn2)cc1NS(C)(=O)=O [CDK9‐IN‐1] | 3% | 54% | – | –
23 | C[C@@]12CCc3occc3[C@H]1CC[C@@]13C[C@@H](CC[C@H]12)[C@@](O)(CO)C3 [Cafestol] | 28% | 0% | – | –
24 | CC1(C)CC[C@]2(C(=O)O)CC[C@]3(C)C(=CC[C@@H]4[C@@]5(C)CC[C@H](O[C@@H]6O[C@H](C(=O)O)[C@@H](O)[C@H](O)[C@H]6O)C(C)(C)[C@@H]5CC[C@]43C)[C@@H]2C1 [Calenduloside E] | 0% | 0% | – | –
25 | CN1CC[C@]23c4ccccc4N[C@H]1[C@]21CCN(C)[C@H]3Nc2ccccc21 [Calycanthine] | 0% | 0% | – | –
26 | COc1ccc(-c2coc3cc(O[C@@H]4O[C@H](CO)[C@@H](O)[C@H](O)[C@H]4O)ccc3c2=O)cc1O [Calycosin‐7‐O‐β‐D‐glucoside] | 11% | 20% | – | –
27 | c1ccc2c(-c3nccs3)c[nH]c2c1 [Camalexin] | 27% | 50% | – | –
28 | CC1(C)S[C@@H]2[C@H](NC(=O)C(C(=O)[O-])c3ccccc3)C(=O)N2[C@H]1C(=O)[O-].[Na+].[Na+] (stereo partly shown) [Carbenicillin (disodium)] | 27% | 27% | – | –
29 | C=C1[C@@H]2CC[C@H]3[C@]4(C)C[C@H](O[C@@H]5O[C@H](CO)[C@@H](OS(=O)(=O)O)[C@H](OS(=O)(=O)O)[C@H]5OC(=O)CC(C)C)CC(C(=O)[O-])(C(=O)[O-])[C@H]4CC[C@]3(C2)[C@H]1O.[K+].[K+] [Carboxyatractyloside (dipotassium)] | 18% | 15% | – | –
30 | C=C1[C@@H]2CC[C@H]3[C@]4(C)C[C@H](O[C@H]5O[C@@H](CO)[C@H](OS(=O)(=O)[O-])[C@@H](OS(=O)(=O)[O-])[C@@H]5OC(=O)CC(C)C)C[C@@](C(=O)[O-])(C(=O)O)[C@H]4CC[C@]3(C2)[C@H]1O.[K+].[K+].[K+] [Carboxyatractyloside (tripotassium)] | 23% | 23% | – | –
31 | COc1cc(O)cc(O)c1C(=O)/C=C/c1ccccc1 [Cardamonin] | 13% | 0% | – | –
32 | C=C1CC[C@H]2O[C@]2(C)CC[C@@H]2[C@@H]1CC2(C)C [Caryophyllene oxide] | 13% | 13% | – | –
33 | CC(=O)O.CC(=O)O.CC[C@H](C)C[C@H](C)CCCCCCCCC(=O)N[C@H]1C[C@@H](O)[C@@H](NCCN)NC(=O)[C@@H]2[C@@H](O)CCN2C(=O)[C@H]([C@H](O)CCN)NC(=O)[C@H]([C@H](O)[C@@H](O)c2ccc(O)cc2)NC(=O)[C@@H]2C[C@@H](O)CN2C(=O)[C@H]([C@@H](C)O)NC1=O [Caspofungin (Acetate)] | 4% | 27% | – | –
34 | CCC1=C[C@@H]2CN3CCc4c([nH]c5ccccc45)[C@@](C(=O)OC)(C2)[C@@H]13.O=C(O)C(O)C(O)C(=O)O [Catharanthine (Tartrate)] | – | – | 0 | 12
35 | CCC1=C[C@@H]2CN3CCc4c([nH]c5ccccc45)[C@@](C(=O)OC)(C2)[C@@H]13 [Catharanthine] | 0% | 0% | – | –
36 | CC1(C)CC[C@]2(C(=O)O)CC[C@]3(C)C(=CC[C@@H]4[C@@]5(C)CC[C@H](O[C@@H]6OC[C@H](O)[C@H](O)[C@H]6O)[C@@](C)(CO)[C@@H]5CC[C@]43C)[C@@H]2C1 [Cauloside A] | 24% | 12% | – | –
37 | CC1(C)CC[C@]2(C(=O)O)CC[C@]3(C)C(=CC[C@@H]4[C@@]5(C)CC[C@H](O[C@@H]6OC[C@H](O)[C@H](O)[C@H]6O[C@@H]6O[C@H](CO)[C@@H](O)[C@H](O)[C@H]6O)[C@@](C)(CO)[C@@H]5CC[C@]43C)[C@@H]2C1 [Cauloside C] | 10% | 0% | – | –
38 | Cn1nnnc1SCC1=C(C(=O)[O-])N2C(=O)[C@@H](NC(=O)[C@H](OC=O)c3ccccc3)[C@H]2SC1.[Na+] [Cefamandole (nafate)] | 0% | 0% | – | –
39 | Cc1nnc(SCC2=C(C(=O)[O-])N3C(=O)[C@@H](NC(=O)Cn4cnnn4)[C@H]3SC2)s1.[Na+] [Cefazolin (sodium)] | 0% | 14% | – | –
40 | CO/N=C(\C(=O)N[C@@H]1C(=O)N2C(C(=O)OCOC(=O)C(C)(C)C)=C(/C=C\c3scnc3C)CS[C@H]12)c1csc(N)n1 [Cefditoren (Pivoxil)] | 1% | 36% | – | –
